What was measured:
[1] = test system: Female Balb/c mice; experiment: Writhing test in mice, writhing induced by IP acetic acid (Example 13); format: in vivo
Procedure: Experiments 1: The experiments were carried out on Female Balb/c mice (21-26g). Two experimental groups were used: control (untreated) (n=6) and treated group (n=6). […] Half an hour after nasal application, each animal in treated and control groups was IP administered with acetic acid 0.6% (10 ml/kg) and individually housed in cage with a smooth flat floor. Antinociception effect was recorded by counting the number of writhes 5 minutes after injection of acetic acid for period of 10 minutes. A writhe is indicated by abdominal constriction and stretching of at least one hind limb.
Experiment 2: The experiment was carried out on Female Balb/c mice (21-26g). Two experimental groups were used: control (untreated) (n=6) and treated group (n=6). […] Immediately after nasal application (t=0), each animal in treated and control groups was IP administered with acetic acid 0.6% (10 ml/kg) and individually housed in cage with a smooth flat floor. Antinociception was recorded by counting the number of writhes 5 minutes after injection of acetic acid for period of 10 minutes.
Experiment 3: The experiments were carried out on Female Balb/c mice (21-26g). Three experimental groups were used: control (untreated) (n=4), mice intranasally administered with the Diazepam IN vesicular composition (2.8µl in each nostril = diazepam dose of 5mg/kg animal) (n=4), and mice subcutaneously administered with the Diazepam solution 0.125 % at dose of 5mg/kg animal (n=4). […] Simultaneously, each animal in treated and control groups was IP administered with acetic acid 0.6% (10 ml/kg) and individually housed in cage with a smooth flat floor. Antinociception was recorded by counting the number of writhes 5 minutes after injection of acetic acid for period of 10 minutes.

[2] = test system: Plasmodium berghei anka; experiment: Treatment and prophylaxis of malaria in infected mice, model of cerebral malaria (Example 12); format: in vivo; settings: 10mg DHA/kg/day, ICR female mice; for mice survived: treatment regimen (from day 2 after infection, 4 days)
Procedure: Experiments were carried out in vivo in ICR female mice infected with 10^6 erythrocytes parasitized Plasmodium berghei anka, a model of cerebral malaria with striking similarities to the human disease. Infections were monitored using giemsa-stained thin blood smears prepared from tail blood. The animals were treated under isoflurane anesthesia with 10mg DHA/kg/day in a two divided daily doses by two dosage regimens: prophylaxis regimen- starting at 2 days before the infection for a total of 6 days; treatment regimen- starting on day 2 after infection (parasitemia first detected) for a total of 4 days. Mice were either treated by the intranasal administration or by the i.p. injection containing the same DHA doses. Controls included placebo (delivery carrier only) and untreated infected animals. Experiments were conducted in accordance with institutional guidelines for animal care.

[3] = test system: nasal mucosa; experiment: Transport of fluorescent probe across nasal mucosa after in vivo administration, CLS microscopy (Example 15); settings: composition of the invention with 0.05% Rhodamine B, 100µL to the right nostril of rats, 1/2 hour
Procedure: A stock solution of Rhodamine B (2mg/mL) was prepared in water. 50mg of phospholipid were dissolved in 200 mg ethanol. […] The composition is stirred for additional 5 min. The composition is described in Table IV.

CN1C(=O)CN=C(c2ccccc2)c2cc(Cl)ccc21 [diazepam, 7-chloro-1,3-dihydro-1-methyl-5-phenyl-2H-1,4-benzo-diazepin-2-one]
writhing episodes (number of writhes) ([1]; Experiment 1: intranasal vesicular composition, 5mg/kg, 0.5 h before acetic acid injection, versus untreated control): efficiently prevented writhing episodes
writhing episodes (number of writhes) ([1]; Experiment 2: intranasal vesicular composition, 5mg/kg, simultaneously with acetic acid injection, versus untreated control): efficient in treating writhing episodes
writhing episodes (number of writhes) ([1]; Experiment 3: intranasal vesicular composition 5mg/kg versus subcutaneous diazepam solution 5mg/kg, simultaneously with acetic acid injection): significantly more efficient in treating writhing episodes as compared to the same dose of the drug administered subcutaneously

C[C@H]1[C@@H](O)O[C@@H]2O[C@@]3(C)CC[C@H]4[C@H](C)CC[C@@H]1[C@@]24OO3 [DHA, dihydroartemisinin]
mice in which parasites appeared ([2]; prophylaxis regimen, i.p. injection): 74%
mice survived ([2]; i.p. injection): 19%
mice survived ([2]; intranasal): 75%

CCN(CC)c1ccc2c(-c3ccccc3C(=O)O)c3ccc(=[N+](CC)CC)cc-3oc2c1.[Cl-] [rhodamine B, Rhodamine B]
transport across the nasal mucosa [3]: efficiently delivered

— patent EP1933809B1, “COMPOSITIONS FOR NASAL DELIVERY” (YISSUM RESEARCH DEVELOPMENT COMPANY OF THE HEBREW …, priority 2005, dated 2007)
